According to patent publication US20220153734A1, “Pyrazolopyridine Compounds For IRE1 Inhibition” (Optikira, LLC, priority 2019, published 2022):

Experiments:
[1] = test system: ARPE-19 cells stably expressing XBP1 (a.a. 1-376); assay: Cellular XBP1 splicing assay (NanoLuc luciferase, thapsigargin); format: cell-based; conditions: thapsigargin 150 nM
Method: Cellular XBP1 Splicing Assay
ARPE-19 cells stably expressing XBP1 (a.a. 1-376) with nano-luciferase gene sequence linked so it is in frame when XBP1 is spliced, were cultured in F12 media, 10% FBS, 0.044% sodium bicarbonate, 150 μg/ml hygromycin B and seeded for assays at 5,000 cells in 384 well plates in culture media without hygromycin B and incubated at 37° C./5% CO2. After overnight incubation test compounds were added to the cell plate in a 10-point ½ log dilution series in duplicate (final DMSO concentration 0.117%). After further incubation of 30 minutes thapsigargin was added (final concentration 150 nM) and then another 4 hour incubation. A NanoLuc luciferase assay (Promega) was used according to the manufacturer's instructions to detect the luciferase and luminescence measured on a luminometer (EnVision, PerkinElmer). IC50 values calculated by fitting a sigmoidal curve to percent inhibition of control of compound concentration.

[2] = biological target: T1, IRE1α (Homo sapiens, UniProt O75460); assay: Biochemical assay: inhibition of RNase activity of IRE1α; conditions: enzyme 0.325 nM, substrate 100 nM, 20 minutes
T1 construct: purchased Signal Chem E31-11G
Method: Biochemical Assay: Inhibition of RNase Activity of IRE1α
The RNase reactions were performed in 384 well black ProxiPlate-384 Plus plates (PERKIN Elmer) using 50 mM Tris assay buffer with 0.5 mM MgCl2, 10 mM KCl, 0.03% Tween, 2 mM DTT and 1% DMSO. Test compounds were prepared on the day of assay and dispensed using D300 digital dispenser as a 10-point ½ log dilution series in duplicate, normalized to a final DMSO concentration of […]. Test compounds were pre-incubated for 30 min at room temperature with IRE1α kinase (E31-11G from Signal Chem) in 2.5 μL of assay buffer. Then 2.5 μl of assay buffer containing substrate (5′ Alexa Fluor 647-rCrArU rGrUrC rCrGrC rArGrC rGrCrArUrG-Iowa Black RQ quencher 3′) added, giving a final concentration of enzyme of 0.325 nM and of substrate of 100 nM. After 20 minutes incubation at room temperature the reactions were stopped by added 5 μL of 5M urea, incubated at room temperature for 10 minutes and fluorescence measured on a plate reader (EnVision, PerkinElmer). IC50 values calculated by fitting a sigmoidal curve to percent inhibition of control versus compound concentration.

T1 sequence (O75460 468-977 limits assumed): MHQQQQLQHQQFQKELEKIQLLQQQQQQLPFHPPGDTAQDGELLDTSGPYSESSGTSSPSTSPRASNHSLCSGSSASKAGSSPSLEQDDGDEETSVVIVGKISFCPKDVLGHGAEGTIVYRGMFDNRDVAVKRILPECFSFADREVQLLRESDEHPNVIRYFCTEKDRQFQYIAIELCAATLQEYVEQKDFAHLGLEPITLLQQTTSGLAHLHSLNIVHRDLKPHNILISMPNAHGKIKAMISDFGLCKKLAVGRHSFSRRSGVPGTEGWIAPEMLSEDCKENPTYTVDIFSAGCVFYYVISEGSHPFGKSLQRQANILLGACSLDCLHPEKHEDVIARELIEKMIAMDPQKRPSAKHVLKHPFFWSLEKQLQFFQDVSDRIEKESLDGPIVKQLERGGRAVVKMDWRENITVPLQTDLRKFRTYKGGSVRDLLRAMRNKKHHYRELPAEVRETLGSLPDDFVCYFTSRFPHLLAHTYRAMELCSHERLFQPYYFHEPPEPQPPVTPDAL

Row | IC50 ([1]; Homo sapiens, ARPE-19, 4 h) [nM] | IC50 [2] [nM] | IC50 ([1]; 4 hour) [nM] | SMILES
1 | 6.8 | 1.2 |  | COCC(C)NC1CC=C(c2cnc(N)c3c(-c4ccc(NS(=O)(=O)Cc5ccccc5Cl)c(F)c4)nn(C(C)C)c23)CC1 (single isomer, unassigned) [Compound B4, N-(4-(4-amino-1-isopropyl-7-(4-((1-methoxypropan-2-yl)amino)cyclohex-1-en-1-yl)-1H-pyrazolo[4,3-c]pyridin-3-yl)-2-fluorophenyl)-1-(2-chlorophenyl)methanesulfonamide]
2 |  | 1.2 | 6.5 | COCC(C)NC1CC=C(c2cnc(N)c3c(-c4ccc(NS(=O)(=O)Cc5ccccc5Cl)c(F)c4)nn(C(C)C)c23)CC1 (single isomer, unassigned) [Compound B5, N-(4-(4-amino-1-isopropyl-7-(4-((1-methoxypropan-2-yl)amino)cyclohex-1-en-1-yl)-1H-pyrazolo[4,3-c]pyridin-3-yl)-2-fluorophenyl)-1-(2-chlorophenyl)methanesulfonamide]
3 |  | 21 | 410 | CC(C)n1nc(-c2cc(F)c(NS(=O)(=O)Cc3ccccc3Cl)cc2F)c2c(N)ncc(C3=CCC(NC4COC4)CC3)c21 (single isomer, unassigned) [Compound B7, N-(4-(4-amino-1-isopropyl-7-(4-(oxetan-3-ylamino)cyclohex-1-en-1-yl)-1H-pyrazolo[4,3-c]pyridin-3-yl)-2,5-difluorophenyl)-1-(2-chlorophenyl)methanesulfonamide]
4 |  | 6.7 | 19 | COc1ccc(Cl)c(S(=O)(=O)Nc2ccc(-c3nn(C(C)C)c4c(C5=CCC(NC6COC6)CC5)cnc(N)c34)cc2F)c1 (single isomer, unassigned) [Compound B8, N-(4-(4-amino-1-isopropyl-7-(4-(oxetan-3-ylamino)cyclohex-1-en-1-yl)-1H-pyrazolo[4,3-c]pyridin-3-yl)-2-fluorophenyl)-2-chloro-5-methoxybenzenesulfonamide]
5 |  | 70 | 150 | COc1ccc(Cl)c(S(=O)(=O)Nc2ccc(-c3nn(C(C)C)c4c(C5=CCC(NC6COC6)CC5)cnc(N)c34)cc2F)c1 (single isomer, unassigned) [Compound B9, N-(4-(4-amino-1-isopropyl-7-(4-(oxetan-3-ylamino)cyclohex-1-en-1-yl)-1H-pyrazolo[4,3-c]pyridin-3-yl)-2-fluorophenyl)-2-chloro-5-methoxybenzenesulfonamide]
6 |  | 34 | 500 | CC(C)n1nc(-c2cc(F)c(NS(=O)(=O)c3ccccc3Cl)cc2F)c2c(N)ncc(C3=CCC(NC4COC4)CC3)c21 (single isomer, unassigned) [Compound B11, N-(4-(4-amino-1-isopropyl-7-(4-(oxetan-3-ylamino)cyclohex-1-en-1-yl)-1H-pyrazolo[4,3-c]pyridin-3-yl)-2,5-difluorophenyl)-2-chlorobenzenesulfonamide]
7 |  | 5.2 | 90 | CC(C)n1nc(-c2ccc(NS(=O)(=O)Cc3ccccc3Cl)c(F)c2)c2c(N)ncc(C3=CCC(NC4COC4)CC3)c21 (single isomer, unassigned) [Compound B13, N-(4-(4-amino-1-isopropyl-7-(4-(oxetan-3-ylamino)cyclohex-1-en-1-yl)-1H-pyrazolo[4,3-c]pyridin-3-yl)-2-fluorophenyl)-1-(2-chlorophenyl)methanesulfonamide]
8 |  | 6.8 | 160 | CC(C)n1nc(-c2ccc(NS(=O)(=O)c3cc(Cl)ccc3F)c(F)c2)c2c(N)ncc(C3=CCC(NC4COC4)CC3)c21 (single isomer, unassigned) [Compound B14, N-(4-(4-amino-1-isopropyl-7-(4-(oxetan-3-ylamino)cyclohex-1-en-1-yl)-1H-pyrazolo[4,3-c]pyridin-3-yl)-2-fluorophenyl)-5-chloro-2-fluorobenzenesulfonamide]
9 |  | 1.4 | 24 | CC(C)n1nc(-c2ccc(NS(=O)(=O)c3cc(Cl)ccc3F)c(F)c2)c2c(N)ncc(C3=CCC(NC4COC4)CC3)c21 (single isomer, unassigned) [Compound B15, N-(4-(4-amino-1-isopropyl-7-(4-(oxetan-3-ylamino)cyclohex-1-en-1-yl)-1H-pyrazolo[4,3-c]pyridin-3-yl)-2-fluorophenyl)-5-chloro-2-fluorobenzenesulfonamide]
10 |  | 13 | 110 | Cc1ccc(F)c(S(=O)(=O)Nc2ccc(-c3nn(C(C)C)c4c(C5=CCC(NC6COC6)CC5)cnc(N)c34)cc2F)c1 (single isomer, unassigned) [Compound B16, N-(4-(4-amino-1-isopropyl-7-(4-(oxetan-3-ylamino)cyclohex-1-en-1-yl)-1H-pyrazolo[4,3-c]pyridin-3-yl)-2-fluorophenyl)-2-fluoro-5-methylbenzenesulfonamide]
11 |  | 2.2 | 21 | Cc1ccc(F)c(S(=O)(=O)Nc2ccc(-c3nn(C(C)C)c4c(C5=CCC(NC6COC6)CC5)cnc(N)c34)cc2F)c1 (single isomer, unassigned) [Compound B17, N-(4-(4-amino-1-isopropyl-7-(4-(oxetan-3-ylamino)cyclohex-1-en-1-yl)-1H-pyrazolo[4,3-c]pyridin-3-yl)-2-fluorophenyl)-2-fluoro-5-methylbenzenesulfonamide]
12 |  | 9.9 | 82 | Nc1ncc(C2=CCC(NC3COC3)CC2)c2c1c(-c1ccc(NS(=O)(=O)c3ccccc3Cl)c(F)c1)nn2C1CC1 (single isomer, unassigned) [Compound B18, N-(4-(4-amino-1-cyclopropyl-7-(4-(oxetan-3-ylamino)cyclohex-1-en-1-yl)-1H-pyrazolo[4,3-c]pyridin-3-yl)-2-fluorophenyl)-2-chlorobenzenesulfonamide]
13 |  | 3.5 | 20 | Nc1ncc(C2=CCC(NC3COC3)CC2)c2c1c(-c1ccc(NS(=O)(=O)c3ccccc3Cl)c(F)c1)nn2C1CC1 (single isomer, unassigned) [Compound B19, N-(4-(4-amino-1-cyclopropyl-7-(4-(oxetan-3-ylamino)cyclohex-1-en-1-yl)-1H-pyrazolo[4,3-c]pyridin-3-yl)-2-fluorophenyl)-2-chlorobenzenesulfonamide]
14 |  | 0.9 | 10 | Nc1ncc(C2=CCC(NC3COC3)CC2)c2c1c(-c1ccc(NS(=O)(=O)Cc3ccccc3Cl)c(F)c1)nn2C1CC1 (single isomer, unassigned) [Compound B22, N-(4-(4-amino-1-cyclopropyl-7-(4-(oxetan-3-ylamino)cyclohex-1-en-1-yl)-1H-pyrazolo[4,3-c]pyridin-3-yl)-2-fluorophenyl)-1-(2-chlorophenyl)methanesulfonamide]
15 |  | 3.1 | 46 | Nc1ncc(C2=CCC(NC3COC3)CC2)c2c1c(-c1ccc(NS(=O)(=O)Cc3ccccc3Cl)c(F)c1)nn2C1CC1 (single isomer, unassigned) [Compound B23, N-(4-(4-amino-1-cyclopropyl-7-(4-(oxetan-3-ylamino)cyclohex-1-en-1-yl)-1H-pyrazolo[4,3-c]pyridin-3-yl)-2-fluorophenyl)-1-(2-chlorophenyl)methanesulfonamide]
16 |  | 53 | 580 | CCn1nc(-c2ccc(NS(=O)(=O)Cc3ccccc3Cl)cc2)c2c(N)ncc(C3=CCC(NC4COC4)CC3)c21 (single isomer, unassigned) [Compound B24, N-(4-(4-amino-1-ethyl-7-(4-(oxetan-3-ylamino)cyclohex-1-en-1-yl)-1H-pyrazolo[4,3-c]pyridin-3-yl)phenyl)-1-(2-chlorophenyl)methanesulfonamide]
17 |  | 5.9 | 78 | CCn1nc(-c2ccc(NS(=O)(=O)Cc3ccccc3F)c(F)c2)c2c(N)ncc(C3=CCC(NC4COC4)CC3)c21 (single isomer, unassigned) [Compound B27, N-(4-(4-amino-1-ethyl-7-(4-(oxetan-3-ylamino)cyclohex-1-en-1-yl)-1H-pyrazolo[4,3-c]pyridin-3-yl)-2-fluorophenyl)-1-(2-fluorophenyl)methanesulfonamide]
18 |  | 7.4 | 68 | CCn1nc(-c2ccc(NS(=O)(=O)Cc3ccccc3Cl)c(F)c2)c2c(N)ncc(C3=CCC(NC4COC4)CC3)c21 (single isomer, unassigned) [Compound B29, N-(4-(4-amino-1-ethyl-7-(4-(oxetan-3-ylamino)cyclohex-1-en-1-yl)-1H-pyrazolo[4,3-c]pyridin-3-yl)-2-fluorophenyl)-1-(2-chlorophenyl)methanesulfonamide]
